Results published in a compilation of properties of binary mixtures (doi:10.1021/acs.jced.0c00740).

Experiment: xn = mol fraction of the nth substance listed
Conditions: 101 kPa

C[NH+](C)C.O=S(=O)([N-]S(=O)(=O)C(F)(F)F)C(F)(F)F + N#CCCCC#N
x1 = 0.2167
Conditions	viscosity [mPa·s]
278 K	23
283 K	18.87
293 K	13.35
303 K	9.89
308 K	8.64
313 K	7.609
323 K	6.028
328 K	5.417
333 K	4.899
338 K	4.457
343 K	4.07
348 K	3.741

C[S+](C)C.O=S(=O)([N-]S(=O)(=O)C(F)(F)F)C(F)(F)F + N#CCCCC#N
x1 = 0.2085
Conditions	viscosity [mPa·s]
283 K	18.02
288 K	15.07
293 K	12.76
298 K	10.92
308 K	8.25
313 K	7.26
323 K	5.744
343 K	3.871
353 K	3.283
